What was measured:
MCF7 [1] = experiment: Anticancer activity against human MCF7 cells assessed as cell viability at 12.5 uM after 24 hrs by MTT assay; format: functional; settings: MCF7, 24 h, read-out: Activity
MCF7 [2] = experiment: Anticancer activity against human MCF7 cells assessed as cell viability at 25 uM after 24 hrs by MTT assay; format: functional; settings: MCF7, 24 h, read-out: Activity
MCF7 [3] = experiment: Anticancer activity against human MCF7 cells assessed as cell viability at 50 uM after 24 hrs by MTT assay; format: functional; settings: MCF7, 24 h, read-out: Activity
MCF7 [4] = experiment: Anticancer activity against human MCF7 cells assessed as cell viability at 100 uM after 24 hrs by MTT assay; format: functional; settings: MCF7, 24 h, read-out: Activity
MCF7 [5] = experiment: Anticancer activity against human MCF7 cells assessed as cell viability at 12.5 uM after 48 hrs by MTT assay; format: functional; settings: MCF7, 48 h, read-out: Activity
MCF7 [6] = experiment: Anticancer activity against human MCF7 cells assessed as cell viability at 25 uM after 48 hrs by MTT assay; format: functional; settings: MCF7, 48 h, read-out: Activity
MCF7 [7] = experiment: Anticancer activity against human MCF7 cells assessed as cell viability at 50 uM after 48 hrs by MTT assay; format: functional; settings: MCF7, 48 h, read-out: Activity
MCF7 [8] = experiment: Anticancer activity against human MCF7 cells assessed as cell viability at 100 uM after 48 hrs by MTT assay; format: functional; settings: MCF7, 48 h, read-out: Activity
CCRF-CEM [9] = experiment: Anticancer activity against human CCRF-CEM cells assessed as cell viability at 12.5 uM after 24 hrs by MTT assay; format: functional; settings: read-out: Activity
CCRF-CEM [10] = experiment: Anticancer activity against human CCRF-CEM cells assessed as cell viability at 25 uM after 24 hrs by MTT assay; format: functional; settings: read-out: Activity
CCRF-CEM [11] = experiment: Anticancer activity against human CCRF-CEM cells assessed as cell viability at 50 uM after 24 hrs by MTT assay; format: functional; settings: read-out: Activity
CCRF-CEM [12] = experiment: Anticancer activity against human CCRF-CEM cells assessed as cell viability at 100 uM after 24 hrs by MTT assay; format: functional; settings: read-out: Activity
CCRF-CEM [13] = experiment: Anticancer activity against human CCRF-CEM cells assessed as cell viability at 12.5 uM after 48 hrs by MTT assay; format: functional; settings: read-out: Activity
CCRF-CEM [14] = experiment: Anticancer activity against human CCRF-CEM cells assessed as cell viability at 25 uM after 48 hrs by MTT assay; format: functional; settings: read-out: Activity
CCRF-CEM [15] = experiment: Anticancer activity against human CCRF-CEM cells assessed as cell viability at 50 uM after 48 hrs by MTT assay; format: functional; settings: read-out: Activity
CCRF-CEM [16] = experiment: Anticancer activity against human CCRF-CEM cells assessed as cell viability at 100 uM after 48 hrs by MTT assay; format: functional; settings: read-out: Activity
[17] = molecular target: Casein kinase II subunit alpha (Homo sapiens) (UniProt P68400); experiment: Inhibition of human CK2alpha using RRRDDDSDDD peptide substrate at 20 uM by P81 filter-binding assay; parameters: scale not given: the % may be the effect or the level left
[18] = molecular target: Casein kinase II subunit alpha (Homo sapiens) (UniProt P68400); experiment: Inhibition of human CK2alpha using RRRDDDSDDD peptide substrate at 200 uM by P81 filter-binding assay; parameters: scale not given: the % may be the effect or the level left

Chain of Casein kinase II subunit alpha (Homo sapiens) (P68400 whole entry, looked up): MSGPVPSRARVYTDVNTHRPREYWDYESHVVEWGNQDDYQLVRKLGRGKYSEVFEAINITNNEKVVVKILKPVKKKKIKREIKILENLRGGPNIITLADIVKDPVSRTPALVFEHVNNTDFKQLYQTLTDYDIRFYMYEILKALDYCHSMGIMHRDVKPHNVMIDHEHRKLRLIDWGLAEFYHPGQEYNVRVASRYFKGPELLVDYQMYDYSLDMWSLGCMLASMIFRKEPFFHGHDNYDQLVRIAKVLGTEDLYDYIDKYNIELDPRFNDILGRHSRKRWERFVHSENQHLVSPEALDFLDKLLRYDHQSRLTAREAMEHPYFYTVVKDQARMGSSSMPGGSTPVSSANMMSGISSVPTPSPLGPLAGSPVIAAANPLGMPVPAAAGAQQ

Row | SMILES | viability at 12.5 µM (MCF7 [1]) [%] | viability at 25 µM (MCF7 [2]) [%] | viability at 50 µM (MCF7 [3]) [%] | viability at 100 µM (MCF7 [4]) [%] | viability at 12.5 µM (MCF7 [5]) [%] | viability at 25 µM (MCF7 [6]) [%] | viability at 50 µM (MCF7 [7]) [%] | viability at 100 µM (MCF7 [8]) [%] | viability at 12.5 µM (CCRF-CEM [9]) [%] | viability at 25 µM (CCRF-CEM [10]) [%] | viability at 50 µM (CCRF-CEM [11]) [%] | viability at 100 µM (CCRF-CEM [12]) [%] | viability at 12.5 µM (CCRF-CEM [13]) [%] | viability at 25 µM (CCRF-CEM [14]) [%] | viability at 50 µM (CCRF-CEM [15]) [%] | viability at 100 µM (CCRF-CEM [16]) [%] | Activity [17] [%] | Activity [18] [%]
1 | CC(O)Cn1nc2c(Br)c(Br)c(Br)c(Br)c2n1 (racemic) | 118 | 96 | 60 | 15 | 99 | 83 | 16 | 6 | 125 | 102 | 108 | 9 | 83 | 78 | 53 | 0 |  | 
2 | CC(O)CCn1nc2c(Br)c(Br)c(Br)c(Br)c2n1 (racemic) | 99 | 102 | 90 | 57 | 79 | 73 | 76 | 0 | 106 | 113 | 89 | 3 | 94 | 86 | 45 | 0 |  | 
3 | C[C@H](O)CCn1nc2c(Br)c(Br)c(Br)c(Br)c2n1 | 112 | 102 | 105 | 31 | 100 | 89 | 87 | 6 | 126 | 112 | 86 | 36 | 92 | 89 | 42 | 10 |  | 
4 | COc1cccc(C(O)CCn2nc3c(Br)c(Br)c(Br)c(Br)c3n2)c1 (stereo not given) | 121 | 71 | 22 | 16 | 97 | 96 | 20 | 6 | 110 | 106 | 58 | 48 | 96 | 50 | 2 | 2 | 95.1 | 87.5
5 | OC(CCn1nc2c(Br)c(Br)c(Br)c(Br)c2n1)c1ccc(Cl)cc1 (stereo not given) | 90 | 96 | 19 | 0 | 100 | 92 | 9 | 0 | 105 | 106 | 56 | 0 | 93 | 69 | 0 | 0 | 95.6 | 45.4
6 | C[C@H](O)Cn1nc2c(Br)c(Br)c(Br)c(Br)c2n1 | 119 | 67 | 58 | 25 | 101 | 64 | 10 | 8 | 104 | 104 | 72 | 9 | 105 | 92 | 58 | 0 |  | 
7 | OC(CCn1nc2c(Br)c(Br)c(Br)c(Br)c2n1)c1cccc(Br)c1 (stereo not given) | 81 | 52 | 14 | 1 | 102 | 106 | 11 | 0 | 102 | 123 | 54 | 0 | 118 | 54 | 0 | 0 | 96.6 | 43.4
8 | Brc1c(Br)c(Br)c2[nH]nnc2c1Br [TETRABROMOBENZOTRIAZOLE] | 111 | 108 | 120 | 109 |  |  |  |  | 115 | 105 | 118 | 61 |  |  |  |  |  | 
9 | OC(CCn1nc2c(Br)c(Br)c(Br)c(Br)c2n1)c1ccc(Br)cc1 (stereo not given) | 82 | 59 | 10 | 0 | 107 | 105 | 15 | 0 | 101 | 109 | 58 | 0 | 89 | 69 | 0 | 0 | 97.4 | 33.5
10 | C[C@@H](O)CCn1nc2c(Br)c(Br)c(Br)c(Br)c2n1 | 109 | 105 | 102 | 18 | 86 | 77 | 64 | 0 | 88 | 81 | 69 | 36 | 94 | 71 | 23 | 24 |  | 
11 | OC(CCn1nc2c(Br)c(Br)c(Br)c(Br)c2n1)c1cccc(Cl)c1 (stereo not given) | 97 | 96 | 28 | 0 | 107 | 101 | 12 | 0.5 | 110 | 118 | 71 | 0 | 70 | 68 | 0 | 0 | 74.9 | 23.8
12 | OCC(O)Cn1nc2c(Br)c(Br)c(Br)c(Br)c2n1 (racemic) | 145 | 156 | 98 | 53 | 116 | 111 | 109 | 8 | 78 | 89 | 47 | 8 | 60 | 56 | 27 | 1 |  | 
13 | OC(CCn1nc2c(Br)c(Br)c(Br)c(Br)c2n1)c1ccccc1 (racemic) | 115 | 99 | 28 | 13 | 113 | 105 | 23 | 0 | 122 | 123 | 66 | 21 | 89 | 84 | 0 | 0 | 93 | 31.1
14 | OC(CCn1nc2c(Br)c(Br)c(Br)c(Br)c2n1)c1ccc(F)cc1 (stereo not given) | 116 | 101 | 16 | 0 | 109 | 97 | 7 | 0 | 110 | 104 | 46 | 0 | 101 | 88 | 0 | 0 | 91.4 | 35.4

Reference: ChEMBL document CHEMBL3351930, “Synthesis of novel chiral TBBt derivatives with hydroxyl moiety. Studies on inhibition of human protein kinase CK2α and cytotoxicity properties” (Eur J Med Chem, 2014)
